Measured values from US20180099931A1 (AbbVie S.à.r.l., priority 2016, published 2018).
Like-named read-outs stand apart in the source and are kept apart here.

Target: T1, F508delCFTR (Homo sapiens, UniProt P13569, DEL508-508)
T1 construct: expressed in transfected cells; host or cells: CFBE41o- human lung-derived epithelial cells (CFBE4lo-F508delCFTR-HRP), doxycycline-inducible
Assay: Cell Surface Expression-Horse Radish Peroxidase (CSE-HRP) Assay;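 as to Maximum % activity (with co-corrector): co-corrector and positive control are both the same reference corrector at 2 µM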;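 as to Maximum % activity (without co-corrector): percent of the 2 µM on-plate positive control corrector response above DMSO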
Format: cell-based
Conditions: for Maximum % activity (with co-corrector) / Emax: maximum at any tested concentration, normalized to on-plate positive control; for Emax: read-out: Maximum % activity (without co-corrector)

[1] = test compound without co-corrector, read-out: EC50 (without co-corrector)
[2] = with co-corrector (2 μM of 3-[(2R,4R)-4-({[1-(2,2-difluoro-1,3-benzodioxol-5-yl)cyclopropyl]carbonyl}amino)-7-methoxy-3,4-dihydro-2H-chromen-2-yl]benzoic acid), read-out: EC50 (with co-corrector)
[3] = test compound without co-corrector
[4] = with co-corrector (2 μM of 3-[(2R,4R)-4-({[1-(2,2-difluoro-1,3-benzodioxol-5-yl)cyclopropyl]carbonyl}amino)-7-methoxy-3,4-dihydro-2H-chromen-2-yl]benzoic acid)
[5] = CSE-HRP, test compound without co-corrector, read-out: EC50 (without co-corrector)
[6] = CSE-HRP, with co-corrector (2 μM of 3-[(2R,4R)-4-({[1-(2,2-difluoro-1,3-benzodioxol-5-yl)cyclopropyl]carbonyl}amino)-7-methoxy-3,4-dihydro-2H-chromen-2-yl]benzoic acid), read-out: EC50 (with co-corrector)
[7] = CSE-HRP, with co-corrector (2 μM)

T1 sequence (P13569 with tags, fused parts or gaps DEL508-508): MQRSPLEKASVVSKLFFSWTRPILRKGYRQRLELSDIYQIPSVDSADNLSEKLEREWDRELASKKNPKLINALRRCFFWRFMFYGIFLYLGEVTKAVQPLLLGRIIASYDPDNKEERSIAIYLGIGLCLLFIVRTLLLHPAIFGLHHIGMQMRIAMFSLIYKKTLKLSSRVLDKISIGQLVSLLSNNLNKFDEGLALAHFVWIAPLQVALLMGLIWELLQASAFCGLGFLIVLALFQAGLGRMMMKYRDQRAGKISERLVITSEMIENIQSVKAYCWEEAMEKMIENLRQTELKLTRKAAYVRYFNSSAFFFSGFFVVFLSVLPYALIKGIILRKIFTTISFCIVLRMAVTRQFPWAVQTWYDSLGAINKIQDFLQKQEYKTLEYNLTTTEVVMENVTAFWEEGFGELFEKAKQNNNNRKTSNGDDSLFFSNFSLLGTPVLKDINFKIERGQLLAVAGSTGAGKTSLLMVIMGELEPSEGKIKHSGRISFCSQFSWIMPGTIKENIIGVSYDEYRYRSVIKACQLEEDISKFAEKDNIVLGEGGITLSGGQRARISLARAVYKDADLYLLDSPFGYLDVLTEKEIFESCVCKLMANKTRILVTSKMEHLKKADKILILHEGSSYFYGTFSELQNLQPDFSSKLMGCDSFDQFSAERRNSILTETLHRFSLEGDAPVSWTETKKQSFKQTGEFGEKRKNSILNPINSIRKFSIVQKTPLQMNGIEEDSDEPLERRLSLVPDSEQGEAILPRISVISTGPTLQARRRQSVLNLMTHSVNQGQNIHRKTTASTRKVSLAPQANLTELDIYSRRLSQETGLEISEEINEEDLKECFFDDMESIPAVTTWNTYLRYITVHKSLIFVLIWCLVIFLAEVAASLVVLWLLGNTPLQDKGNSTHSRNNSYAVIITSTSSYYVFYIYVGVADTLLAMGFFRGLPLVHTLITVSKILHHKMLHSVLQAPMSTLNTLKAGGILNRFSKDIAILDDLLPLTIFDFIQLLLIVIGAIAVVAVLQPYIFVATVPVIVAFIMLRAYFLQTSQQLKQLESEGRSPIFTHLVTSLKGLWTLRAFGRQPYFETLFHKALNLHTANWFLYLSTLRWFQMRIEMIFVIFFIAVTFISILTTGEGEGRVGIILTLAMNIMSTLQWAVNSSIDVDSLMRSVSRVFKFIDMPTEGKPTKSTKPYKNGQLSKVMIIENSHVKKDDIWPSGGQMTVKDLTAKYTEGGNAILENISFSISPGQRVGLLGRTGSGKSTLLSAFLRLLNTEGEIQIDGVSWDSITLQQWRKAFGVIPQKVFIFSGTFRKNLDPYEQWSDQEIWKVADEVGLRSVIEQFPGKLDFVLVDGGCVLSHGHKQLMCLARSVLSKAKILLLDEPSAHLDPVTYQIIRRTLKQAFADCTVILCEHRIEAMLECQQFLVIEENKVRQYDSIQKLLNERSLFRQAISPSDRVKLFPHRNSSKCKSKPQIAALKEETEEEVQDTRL

Compound	EC50 [1] [µM]	EC50 [2] [µM]	Maximum % activity (with co-corrector) (with co-corrector (2 μM))	Emax (without co-corrector) [%]	Emax [3] [%]	Maximum % activity (with co-corrector) [4]	EC50 [5] [µM]	EC50 [6] [µM]	Maximum % activity (with co-corrector) [7]	Emax (CSE-HRP, without co-corrector) [%]
COc1ccc(C(C)(C)C)cc1CN[C@H]1[C@H](C(C)(C)C)[C@@H](C(=O)O)N(C(=O)C2OC[C@@H]3CCC[C@H]23)[C@H]1c1ccccc1 (relative stereo) [Example I-107]	1 to 10	1 to 10	+++ (≥350)	> 200						
COc1ccc(C(C)(C)C)cc1CN[C@H]1[C@H](C(C)(C)C)[C@@H](C(=O)O)N(C(=O)C(C)C2CCCCO2)[C@H]1c1ccccc1 (some centres unmarked) [II-457]	1 to 10	1 to 10			> 200	+++ (≥350)				
COc1ncc(C2CCC2)cc1CN[C@H]1[C@H](C(C)(C)C)[C@@H](C(=O)O)N(C(=O)[C@@H]2CCCO2)[C@H]1c1cccnc1C1CC1 [II-588]	1 to 10	1 to 10			100 to 200	+++ (≥350)				
CCCCCOC(=O)N1[C@H](C(=O)O)[C@@H](C(C)(C)C)[C@H](NCc2cc(C(C)(C)C)ccc2OC)[C@@H]1c1ccccc1 [II-385]	< 1	< 1			> 200	+++ (≥350)				
COc1nc(C(C)(C)C)ccc1CN[C@H]1[C@H](C(C)(C)C)[C@@H](C(=O)O)N(C(=O)OC(C)C)[C@H]1c1cccnc1OC [Example I-234]	1 to 10	< 1	+++ (≥350)	100 to 200						
COc1ccc(-c2cccc(F)c2F)cc1CN[C@H]1[C@H](C(C)(C)C)[C@@H](C(=O)O)N(C(=O)C2CCCCC2)[C@H]1c1ccccc1 [II-286]							< 1	< 1	+++ (≥350)	> 200
COc1ncc(C(F)(F)F)cc1CN[C@H]1[C@H](C(C)(C)C)[C@@H](C(=O)O)N(C(=O)[C@@H]2CCCO2)[C@H]1c1ccccc1Br [Example I-292]							1 to 10	< 1	+++ (≥350)	100 to 200
COc1cc(C(C)(C)C)ccc1CN[C@H]1[C@H](C(C)(C)C)[C@@H](C(=O)O)N(C(=O)OC(C)C)[C@H]1c1ccccc1OC [II-135]							1 to 10	1 to 10	+++ (≥350)	100 to 200
COc1ncc(C2CCC2)cc1CN[C@H]1[C@H](C(C)(C)C)[C@@H](C(=O)O)N(C(=O)[C@@H]2CCCO2)[C@H]1c1ccccc1C1CC1 [Example 107, (2S,3S,4S,5S)-3-tert-butyl-4-{[(5-cyclobutyl-2-methoxypyridin-3-yl)methyl]amino}-5-(2-cyclopropylphenyl)-1-[(2S)-oxolane-2-carbonyl]pyrrolidine-2-carboxylic acid]	1 to 10	< 1	+++ (≥350)	> 200						
COc1ccc(C(C)(C)C)cc1CN[C@H]1[C@H](C(C)(C)C)[C@@H](C(=O)O)N(C(=O)C2CCCCO2)[C@H]1c1ccccc1C(C)C (relative stereo) [Example 62, (2S,3S,4S,5S)-3-tert-butyl-4-{[(5-tert-butyl-2-methoxyphenyl)methyl]amino}-1-[(2S*)-oxane-2-carbonyl]-5-[2-(propan-2-yl)phenyl]pyrrolidine-2-carboxylic acid]	< 1	< 1	+++ (≥350)	> 200						
COc1nc(C(C)(C)C)ccc1CN[C@H]1[C@H](C(C)(C)C)[C@@H](C(=O)O)N(C(=O)[C@H]2CCC[C@@H](OC)C2)[C@H]1c1ccccc1 (relative stereo) [II-456]	1 to 10	1 to 10			> 200	+++ (≥350)				
COc1cc(C)ccc1CN[C@H]1[C@H](C(C)(C)C)[C@@H](C(=O)O)N(C(=O)[C@@H]2CCCCO2)[C@H]1c1cccnc1OC [II-123]							1 to 10	1 to 10	++ (≥150 and <350)	< 100
COc1ccc(CN[C@H]2[C@H](C(C)(C)C)[C@@H](C(=O)O)N(C(=O)C3CCCCC3)[C@H]2c2ccccc2)cc1Cl [III-126]	1 to 10	1 to 10	++ (≥150 and <350)		< 100					
COc1ccc(SC(F)(F)F)cc1CN[C@H]1[C@H](C(C)(C)C)[C@@H](C(=O)O)N(C(=O)OC(C)C)[C@H]1c1cccnc1N(C)C [III-225]	1 to 10	1 to 10	+++ (≥350)		> 200					
COc1ccccc1[C@@H]1[C@H](NCc2cc(C(F)(F)F)cnc2Cl)[C@@H](C(C)(C)C)[C@H](C(=O)O)N1C(=O)C1CCCCC1 (racemic) [II-16]							1 to 10	1 to 10	+++ (≥350)	< 100
COc1ncc(C2CCCCC2)cc1CN[C@H]1[C@H](C(C)(C)C)[C@@H](C(=O)O)N(C(=O)C2CCCCC2)[C@H]1c1ccccc1 [Example I-72]	< 1	< 1	+++ (≥350)	> 200						
COc1ccc(C(F)(F)F)cc1CN[C@H]1[C@H](C(C)(C)C)[C@@H](C(=O)O)N(C(=O)[C@@H]2CCC[C@@H](OC)C2)[C@H]1c1ccccc1 [Example I-59]	1 to 10	1 to 10	+++ (≥350)	> 200						
COc1ccc2c(c1)[C@](C)(C(=O)N1[C@H](C(=O)O)[C@@H](C(C)(C)C)[C@H](NCc3cc(C(C)(C)C)ccc3OC)[C@@H]1c1cccnc1OC)CC2 [II-570]	1 to 10	1 to 10			< 100	++ (≥150 and <350)				
COc1cccc(CN[C@@H]2[C@@H](C(C)(C)C)[C@H](C(=O)O)N(C(=O)C3CCCCC3)[C@@H]2c2ccccc2)n1 (racemic) [III-19]	1 to 10	1 to 10			< 100	++ (≥150 and <350)				
COc1ncc(Br)cc1CN[C@H]1[C@H](C(C)(C)C)[C@@H](C(=O)O)N(C(=O)OC(C)C)[C@H]1c1ccccc1 [II-170]							1 to 10	1 to 10	+++ (≥350)	> 200
CCC(C)(C)c1ccc(OC)c(CN[C@H]2[C@H](C(C)(C)C)[C@@H](C(=O)O)N(C(=O)OC(C)C)[C@H]2c2cccnc2N(C)C)c1 [III-232]	1 to 10	1 to 10	+++ (≥350)		> 200					
COc1cccnc1CN[C@@H]1[C@@H](C(C)(C)C)[C@H](C(=O)O)N(C(=O)C2CCCCC2)[C@@H]1c1ccccc1 (racemic) [III-21]	> 10	1 to 10			< 100	++ (≥150 and <350)				
COc1ncc(C(F)(F)F)cc1CN[C@H]1[C@H](C(C)(C)C)[C@@H](C(=O)O)N(C(=O)OC(C)C)[C@H]1c1ccccc1C(C)C [Example 77, (2S,3S,4S,5S)-3-tert-butyl-4-({[2-methoxy-5-(trifluoromethyl)pyridin-3-yl]methyl}amino)-1-{[(propan-2-yl)oxy]carbonyl}-5-[2-(propan-2-yl)phenyl]pyrrolidine-2-carboxylic acid]	1 to 10	1 to 10	+++ (≥350)	> 200						
COc1ccc(C(C)(C)C)cc1CN[C@H]1[C@H](C(C)(C)C)[C@@H](C(=O)O)N(C(=O)C(OC)c2cccc(Cl)c2)[C@H]1c1ccccc1 (single isomer, unassigned) [II-270]							< 1	< 1	+++ (≥350)	> 200
Cc1cc(C(F)(F)F)cc(N[C@@H]2[C@@H](C)[C@H](C(=O)O)N(C(=O)N(C(C)C)C(C)C)[C@@H]2c2ccccc2)n1 [II-11]							1 to 10	1 to 10	+++ (≥350)	< 100
COc1ccc(C(C)(C)C)cc1CN[C@H]1[C@H](C(C)(C)C)[C@@H](C(=O)O)N(C(=O)C(C)Oc2cccc(C)c2C)[C@H]1c1ccccc1 (some centres unmarked) [II-323]	1 to 10	< 1			100 to 200	+++ (≥350)				
CC(C)N(C(=O)N1[C@H](c2ccccc2)[C@H](NCc2ccccc2OC(F)F)[C@@H](C)[C@@H]1C(=O)O)C(C)C (racemic) [III-34]	1 to 10	1 to 10			< 100	++ (≥150 and <350)				
COc1ccc(C23CC(C2)C3)cc1CN[C@H]1[C@H](C(C)(C)C)[C@@H](C(=O)O)N(C(=O)C2CCCCC2)[C@H]1c1ccccc1 [III-202]	< 1	< 1	+++ (≥350)		> 200					
CC(C)(C)[C@H]1[C@H](NCc2ccc3c(c2)OCCCO3)[C@H](c2ccccc2)N(C(=O)C2CCCCC2)[C@@H]1C(=O)O [III-129]	> 10	1 to 10	++ (≥150 and <350)		< 100					
